This note sets out measurements from article PMC3842914, “Meleagrin, a New FabI Inhibitor from Penicillium chryosogenum with at Least One Additional Mode of Action” (PLoS ONE, 2013).

In brackets after ≈: the same amount, converted by molar mass. Where two headings read alike, the source gives them in different places.

The subject of test [1] is incorporation of [1-14C] acetate into membrane fatty acids in S. aureus. Nature of the test: [14C] acetate incorporation into membrane fatty acids in S. aureus. In kind it is cell-based, Staphylococcus aureus. The settings on record: for IC50: Staphylococcus aureus, read-out: IC50 [14C] acetate incorporation; for Inhibition of acetate incorporation relative to the less active compounds 1, 3, and 4: [1-14C] acetate into membrane fatty acids in S. aureus. Here is the method: To monitor the effects of compound 1 on lipid, DNA, RNA, protein, and cell wall biosynthesis, its effects on the incorporation of [1-^14C] acetate (50 mCi/mmol), [2-^14C] thymidine (59.8 mCi/mmol), [U-^14C] uridine (539 mCi/mmol), L-[U-^14C] leucine (306 mCi/mmol) or L-[U-^14C] isoleucine (329 mCi/mmol), and N-acetyl-D-[1-^14C] glucosamine (58.1 mCi/mmol) into S. aureus and S. pneumoniae were measured as described previously. S. aureus was exponentially grown to an A650 of 0.2 in Mueller–Hinton broth. S. pneumoniae was grown in tryptic soy broth supplemented with 5% sheep blood. […] An equal volume of DMSO solvent was added to the untreated control. After incubation with the radiolabeled precursors at 37°C for 1 h, followed by centrifugation, the cell pellets were washed twice with PBS buffer. After acetate incorporation, the total cellular lipids were extracted with chloroform-methanol-water. The incorporated radioactivity in the chloroform phase was measured by scintillation counting. For the other precursors, incorporation was terminated by adding 10% (w/v) TCA and cooling on ice for 20 min. The precipitated material was collected on Whatman GF/C glass microfiber filters, washed with TCA and ethanol, dried, and counted using a scintillation counter. […] In all experiments, known antibacterial agents were included as positive controls.
We measured their effects on the incorporation of [1-^14C] acetate into membrane fatty acids in S. aureus.

The target in another test is T1, S. pneumoniae FabK (Streptococcus pneumoniae, UniProt Q9FBC5).
T1 sequence (Q9FBC5 1-324): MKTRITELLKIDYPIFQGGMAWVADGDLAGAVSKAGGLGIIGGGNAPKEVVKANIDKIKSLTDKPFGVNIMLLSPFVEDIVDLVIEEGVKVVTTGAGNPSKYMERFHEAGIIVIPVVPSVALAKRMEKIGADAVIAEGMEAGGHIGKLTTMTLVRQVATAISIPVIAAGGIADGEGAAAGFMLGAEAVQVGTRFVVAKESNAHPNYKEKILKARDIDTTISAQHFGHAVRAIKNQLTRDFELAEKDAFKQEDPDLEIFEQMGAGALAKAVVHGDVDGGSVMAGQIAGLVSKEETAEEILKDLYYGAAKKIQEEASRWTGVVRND
Nature of the test: S. pneumoniae FabK enzyme assay. Type of test: biochemical. The source says:
(§1) S. aureus FabI and E. coli FabI enzymes were cloned, overexpressed, and purified as described previously. The wild-type fabK gene was amplified by PCR from genomic DNA obtained from Streptococcus pneumoniae KCTC 5412 by using the primers 5′-[…]-3′ and 5′-[…]-3′, which contained NdeI and XhoI restriction sites, respectively. After the DNA sequence was confirmed, the gene was cloned into the pET22b vector (Novagen, Gibbstown, NJ, USA). The construct was transformed into E. coli BL21 (DE3) for expression following induction with isopropylthiogalactoside. The C-terminal His-tagged protein was purified as described previously. Assays were conducted in half-area, 96-well microtiter plates. The compounds were dissolved in DMSO and evaluated in 100-μL assay mixtures containing components specific for each enzyme (see below). Reduction of the trans-2-octenoyl N-acetylcysteamine (t-o-NAC thioester) substrate analog was measured spectrophotometrically following the utilization of NADH or NADPH at 340 nm at 30°C for the linear period of the assay. S. aureus FabI assays contained 50 mM sodium acetate (pH 6.5), 200 μM t-o-NAC thioester, 200 μM NADPH, and 150 nM S. aureus FabI.
(§2) NADH was used as a cofactor rather than NADPH for the E. coli FabI assay. Substrate concentrations used for the Lineweaver–Burk plot were 100, 200, 300, and 400 μM, whereas the concentrations of the cofactor were 100, 200, 400, and 600 μM. The rate of decrease in the amount of NADPH in each reaction was measured with a microtiter enzyme-linked immunosorbent assay (ELISA) reader by using the SOFTmax PRO software (Molecular Devices, Sunnyvale, CA, USA). The inhibitory activity was calculated according to the following formula: % of inhibition = 100× [1− (rate in the presence of compound/rate in the untreated control)]. IC50 values were calculated by fitting the data to a sigmoid equation. An equal volume of DMSO solvent was used for the untreated control. FabK assays contained 100 mM sodium acetate (pH 6.5), 2% glycerol, 200 mM NH4Cl, 50 µM t-o-NAC thioester, 200 µM NADH, and 150 nM S. pneumoniae FabK.

For a further test, the system named is E. coli KCTC 1924. Kind of test: MIC by broth microdilution, E. coli KCTC 1924. In kind it is cell-based. Conditions: Escherichia coli. Here is the method:
(§3) Whole-cell antimicrobial activity was determined by broth microdilution as described previously. The test strains except for S. pneumoniae were grown to mid-log phase in Mueller–Hinton broth and diluted 1,000-fold in the same medium. Cells (10^5/mL) were inoculated into Mueller–Hinton broth and dispensed at 0.2 mL/well into a 96-well microtiter plate. S. pneumoniae was grown in tryptic soy broth supplemented with 5% sheep blood. MICs were determined in triplicate by serial 2-fold dilutions of test compounds. […] Bacterial growth was determined by measuring the absorption at 650 nm by using a microtiter ELISA reader.

The next test deals with S. aureus RN4220 (pE194). Kind of test: Overexpression assay, MIC for vector-containing S. aureus RN4220 (pE194). Type of test: cell-based. Conditions: Staphylococcus aureus, read-out: MIC S. aureus (pE194). As to the method:
as §3
An overexpression assay using S. aureus RN4220, S. aureus RN4220 (pE194), and S. aureus RN4220 (pE194-fabI) was conducted to perform target validation of FabI inhibitors as described previously. Additionally, both fabI- and fabK-overexpressing E. coli were constructed to test a multitarget effect of the compounds. The wild-type fabI gene from the genomic DNA of E. coli W3110 was amplified by PCR by using the primers 5′-[…]-3′ and 5′-[…]-3′. The wild-type fabK gene from the genomic DNA of S. pneumoniae KCTC 5412 was amplified by PCR by using the primers 5′-[…]-3′ and 5′-[…] […]-3′. The resulting products were cloned into the pBAD-TOPO TA expression vector (Invitrogen, Carlsbad, CA, USA) to yield the pBAD-fabI and pBAD-fabK recombinant plasmids, which placed the expression of the genes fabI and fabK, respectively, under the control of the arabinose promoter. Recombinant pBAD-fabI and pBAD-fabK were then introduced into the pump-negative (tolC) E. coli EW1b via electroporation to generate E. coli EW1b (pBAD-fabI) and E. coli EW1b (pBAD-fabK), respectively.

The next test has as its target T2, E. coli FabI (Escherichia coli, UniProt P0AEK4).
T2 construct: made in house
Kind of test: E. coli FabI enzyme assay (NADH as cofactor). In kind it is biochemical.
Description: as §1, §2

[2] abbreviates: KCTC1924, read-out: MIC E. coli.
[3] abbreviates: KCTC1924, E. coli KCTC 1924, read-out: MIC E. coli.
Where [4] appears, read: S. pneumoniae FabK, read-out: IC50 spFabK.

T2 sequence (P0AEK4 whole entry): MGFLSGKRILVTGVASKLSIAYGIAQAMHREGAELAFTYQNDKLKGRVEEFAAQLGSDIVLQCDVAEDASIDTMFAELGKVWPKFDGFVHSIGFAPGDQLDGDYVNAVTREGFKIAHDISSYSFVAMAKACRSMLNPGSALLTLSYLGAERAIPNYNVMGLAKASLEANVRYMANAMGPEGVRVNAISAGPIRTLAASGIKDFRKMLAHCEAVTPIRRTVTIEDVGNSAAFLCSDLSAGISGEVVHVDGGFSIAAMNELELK

Regarding `C=CC(C)(C)C12C=C(O)C(=O)N3/C(=C/c4cnc[nH]4)C(=O)NC31N(OC)c1ccccc12` (stereo not drawn) [Compound 1, meleagrin], the IC50 in test [1] was 40.3 µM; against S. pneumoniae FabK, > 200 µM; at E. coli FabI, 33.2 µM. In addition, the results for the MIC in the test with E. coli KCTC 1924 (setting [2]) and with S. aureus RN4220 (pE194) were 32 µg/mL (≈ 73.8 µM) and 64 µg/mL (≈ 148 µM), respectively.

As for `C=CC(C)(C)C12C=C(OC)C(=O)N3/C(=C/c4cnc[nH]4)C(=O)NC31N(OC)c1ccccc12` (stereo not drawn) [Compound 3, oxaline], the IC50 is 33.5 µM in test [1], > 200 µM against S. pneumoniae FabK and 38.8 µM at E. coli FabI. In addition, the results for the MIC in the test on E. coli KCTC 1924 (setting [3]) and in the test on S. aureus RN4220 (pE194) were 32 µg/mL (≈ 71.5 µM) and 64 µg/mL (≈ 143 µM), respectively.

Consider `C=CC(C)(C)C12C=C(O)C(=O)N3/C(=C/c4cnc[nH]4)C(=O)N(C)C31N(OC)c1ccccc12` (stereo not drawn) [Compound 4, N^14-methylmeleagrin], for which the IC50 in test [1] was 35.7 µM; at S. pneumoniae FabK it was > 200 µM; against E. coli FabI it was 33.1 µM. Moreover, the MIC (usually the smallest concentration in the dilution series that meets the test's criterion for growth inhibition) in the test on E. coli KCTC 1924 (setting [2]) turned out to be 32 µg/mL (≈ 71.5 µM); with S. aureus RN4220 (pE194) it was 64 µg/mL (≈ 143 µM).

For `C=CC(C)(C)C12C=C(OC)C(=O)N3/C(=C/c4cnc[nH]4)C(=O)N(C)C31N(OC)c1ccccc12` (stereo not drawn) [Compound 5, O,N^14-dimethylmeleagrin], the values for the IC50 (in test [1]; on S. pneumoniae FabK (setting [4]); against E. coli FabI) were 16.3 µM, > 200 µM and 15.6 µM, respectively. In addition, in test [1], the “Inhibition of acetate incorporation relative to the less active compounds 1, 3, and 4” value is given as “approximately 2 fold”. Besides, the MIC in the test on E. coli KCTC 1924 (setting [3]) worked out at 8 µg/mL (≈ 17.3 µM); with S. aureus RN4220 (pE194) it was 16 µg/mL (≈ 34.7 µM).

Consider `C=CC(C)(C)C12C=C(OC)C(=O)N3/C(=C/c4cnc[nH]4)C(=O)N(C)C31Nc1ccccc12` (stereo not drawn) [Compound 6, O,N^14-dimethylglandicolin], for which the IC50 was 19.8 µM in test [1], > 200 µM against S. pneumoniae FabK and 15.4 µM on E. coli FabI. Besides, in test [1], the “Inhibition of acetate incorporation relative to the less active compounds 1, 3, and 4” value is “approximately 2 fold”. Besides, the MIC in the test on E. coli KCTC 1924 (setting [2]) was 8 µg/mL (≈ 18.5 µM); with S. aureus RN4220 (pE194) it was 16 µg/mL (≈ 37.1 µM).

For `C=CC(C)(C)C12C=C(O)C(=O)N3/C(=C/c4cnc[nH]4)C(=O)NC31Nc1c(Br)cccc12` (stereo not drawn) [Compound 7], the IC50 (in test [1]; on S. pneumoniae FabK (setting [4]); at E. coli FabI) was > 200 µM in each case. Moreover, the MIC with E. coli KCTC 1924 (setting [3]) was > 128 µg/mL.

For `Oc1cc(Cl)ccc1Oc1ccc(Cl)cc1Cl` [Triclosan, reference compound], the IC50 in test [1] was 0.04 µM; against S. pneumoniae FabK, > 200 µM. Further, the minimal inhibitory concentration (MIC) came out at 0.02 µg/mL (≈ 0.0691 µM) in the test on E. coli KCTC 1924 (KCTC1924, 24 h, read-out: MIC E. coli); 0.01 µg/mL (≈ 0.0345 µM) in the test on E. coli KCTC 1924 (setting [2]); 0.01 µg/mL (≈ 0.0345 µM) in the test on S. aureus RN4220 (pE194).
